Source: the supplement of paper PMC6045584
± gives the standard deviation of the averaged measurements.

Tests used:
CRIZOTINIB = compound: C[C@@H](Oc1cc(-c2cnn(C3CCNCC3)c2)cnc1N)c1c(Cl)ccc(F)c1Cl [CRIZOTINIB]; assay: surviving fraction relative to DMSO-only wells; higher = less growth inhibition; settings: exposure time: 5 days
How it was run: (§1)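 Continuous five-day exposure to inhibitors at 0.5, 1, 5, 10, 50, 100, 500 and 1000 nM started 24 hours after log-phase tumour cell lines were seeded at 250–500 cells per well in 384-well plates. Luminescence was read after 10 minutes at room temperature. Viability is given as surviving fraction, meaning CellTiter-Glo luminescence normalised to the median of DMSO-only wells.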

OLAPARIB = compound: O=C(c1cc(Cc2n[nH]c(=O)c3ccccc23)ccc1F)N1CCN(C(=O)C2CC2)CC1 [OLAPARIB]; assay: as above; settings: exposure time: 5 days
How it was run: as §1

Test System | surviving fraction (CRIZOTINIB; 0.5 nM) | surviving fraction (CRIZOTINIB; 5 nM) | surviving fraction (CRIZOTINIB; 10 nM) | surviving fraction (CRIZOTINIB; 50 nM) | surviving fraction (CRIZOTINIB; 100 nM) | surviving fraction (CRIZOTINIB; 500 nM) | surviving fraction (CRIZOTINIB; 1000 nM) | surviving fraction (OLAPARIB; 0.5 nM) | surviving fraction (OLAPARIB; 1 nM) | surviving fraction (OLAPARIB; 5 nM) | surviving fraction (OLAPARIB; 10 nM) | surviving fraction (OLAPARIB; 50 nM) | surviving fraction (OLAPARIB; 100 nM) | surviving fraction (OLAPARIB; 500 nM) | surviving fraction (OLAPARIB; 1000 nM) | surviving fraction (CRIZOTINIB; 1 nM)
HCC202 BREAST | 1.38 ± 0.033 | 1.24 ± 0.47 | 1.05 ± 0.069 | 1.13 ± 0.018 | 1.25 ± 0.37 | 1.12 ± 0.12 | 1.246 ± 0.0085 | 0.896 ± 0.024 | 0.973 ± 0.12 | 0.987 ± 0.19 | 0.92 ± 0.2 | 0.713 ± 0.2 | 0.68 ± 0.026 | 0.737 ± 0.075 | 0.649 ± 0.1 | –
HCC1395 BREAST | 1.06 ± 0.18 | 1.33 ± 0.061 | 1.44 ± 0.15 | 1.29 ± 0.18 | 1.28 ± 0.018 | 1.21 ± 0.14 | 1.21 ± 0.061 | 0.85 ± 0.034 | 0.934 ± 0.12 | 1.06 ± 0.065 | 1.03 ± 0.037 | 0.93 ± 0.11 | 1.02 ± 0.059 | 0.787 ± 0.096 | 0.799 ± 0.17 | 1.28 ± 0.025
HCC1806 BREAST | 1.02 ± 0.13 | 1.1 ± 0.065 | – | 1.13 ± 0.066 | – | 0.634 ± 0.036 | 0.318 ± 0.007 | 0.945 ± 0.059 | 1.01 ± 0.063 | 1.05 ± 0.099 | 0.984 ± 0.068 | 0.896 ± 0.12 | 0.74 ± 0.041 | 0.582 ± 0.065 | 0.567 ± 0.066 | 1.09 ± 0.056
HCC1954 BREAST | 1.16 ± 0.14 | – | 1.55 ± 0.21 | 1.03 ± 0.18 | 0.987 ± 0.06 | 0.831 ± 0.082 | 0.689 ± 0.12 | 0.84 ± 0.13 | 0.762 ± 0.033 | 1.1 ± 0.06 | 0.969 ± 0.038 | 0.916 ± 0.092 | 0.6867 ± 0.0046 | 0.719 ± 0.013 | 0.497 ± 0.0021 | 1.25 ± 0.11
HCT15 LARGE INTESTINE | 1.05 ± 0.083 | 1.14 ± 0.044 | – | 1.18 ± 0.042 | 1.17 ± 0.04 | 1.09 ± 0.049 | 0.265 ± 0.022 | 1.09 ± 0.06 | 1.06 ± 0.022 | 1.01 ± 0.085 | 1.05 ± 0.065 | 0.998 ± 0.043 | 1.04 ± 0.018 | 0.999 ± 0.055 | 1.03 ± 0.034 | 1.1 ± 0.1
HELA CERVIX | 1.09 ± 0.057 | 1.08 ± 0.055 | 1.09 ± 0.03 | 1.09 ± 0.12 | 1.07 ± 0.08 | 1.09 ± 0.072 | 0.581 ± 0.028 | 1.05 ± 0.064 | 1.09 ± 0.025 | 1.05 ± 0.031 | 1.04 ± 0.036 | 1.13 ± 0.03 | 1.18 ± 0.092 | 1.17 ± 0.014 | 1.19 ± 0.019 | 1.07 ± 0.062
HOS BONE | 1.03 ± 0.026 | 1.05 ± 0.017 | – | 1.04 ± 0.025 | 1.09 ± 0.022 | 0.685 ± 0.041 | 0.575 ± 0.014 | 1.03 ± 0.022 | 1.03 ± 0.026 | 1.06 ± 0.0091 | 1.012 ± 0.0081 | 1.02 ± 0.028 | 1.01 ± 0.023 | 1.01 ± 0.026 | 0.953 ± 0.041 | –
HOSMNG BONE | 0.954 ± 0.09 | – | – | 0.649 ± 0.012 | 0.501 ± 0.017 | 0.329 ± 0.032 | 0.227 ± 0.011 | 0.877 ± 0.088 | 0.991 ± 0.034 | 0.964 ± 0.043 | 0.933 ± 0.049 | 1.02 ± 0.056 | 1.05 ± 0.03 | 1.06 ± 0.021 | 0.925 ± 0.14 | 0.983 ± 0.1
HSSYII SYNOVIAL | 1.04 ± 0.045 | 1.03 ± 0.05 | 1 ± 0.083 | 0.934 ± 0.034 | – | 0.392 ± 0.037 | 0.189 ± 0.0013 | 0.941 ± 0.039 | 0.949 ± 0.027 | 0.882 ± 0.076 | 0.86 ± 0.013 | 0.827 ± 0.022 | 0.769 ± 0.055 | 0.6097 ± 0.0048 | 0.484 ± 0.046 | 1.03 ± 0.037
HT1080 SOFT TISSUE | 1.07 ± 0.038 | 1.07 ± 0.016 | 1.06 ± 0.017 | 1.04 ± 0.062 | 1.07 ± 0.052 | 1.02 ± 0.042 | 0.798 ± 0.064 | 1.02 ± 0.0063 | 0.977 ± 0.023 | 0.9903 ± 0.0038 | 0.965 ± 0.013 | 0.882 ± 0.037 | 0.819 ± 0.032 | 0.7243 ± 0.0055 | 0.608 ± 0.021 | 1.07 ± 0.028
HU09 BONE | 0.86 ± 0.084 | 1.13 ± 0.099 | 1.14 ± 0.06 | 1.02 ± 0.044 | 1.02 ± 0.042 | 0.511 ± 0.063 | 0.233 ± 0.048 | 1.01 ± 0.094 | 0.974 ± 0.031 | 1.04 ± 0.13 | 1.13 ± 0.083 | 0.896 ± 0.063 | 1.09 ± 0.08 | 0.851 ± 0.061 | 0.779 ± 0.096 | 0.956 ± 0.13
